These results are taken from US9937182B2, “Therapeutic strategies for the treatment of preeclampsia” (UNIVERSITY OF IOWA RESEARCH FOUNDATION, priority 2013, dated 2018).

Entries after “also recorded” stand apart in the source; their conditions may differ. Read-outs that look alike come from different tables or passages of the source.

In one data set the test system is abdominal aorta. In words: Abdominal aortic ring vascular reactivity (organ bath). The class given is cell-based, mice. The following applies: for Emax: Mus musculus, relaxation after PGF2α contraction, read-out: Maximum Response; for Maximum Response: contractile response. How it is done: Aortic Vascular Reactivity: Abdominal aortic rings were assessed for vascular reactivity as previously described (32). Briefly, mice were euthanized by overdose of pentobarbital (50 mg, i.p.), and the abdominal aorta was quickly removed and placed in Kreb's buffer containing (in mmol/L): 118.3 NaCl, 4.7 KCl, 1.2 MgSO4, 1.2 KH2PO4, 25 NaHCO3, 2.5 CaCl2 and 11 glucose. Vascular rings (4-5 mm in length) were suspended in oxygenated Kreb's buffer (95% O2/5% CO2) in organ baths at 37° C. and connected to a force transducer via steel hooks. Resting tension was adjusted to 0.5 grams over 45 minutes. Contractile responses were tested in response to AVP (10^−10-10^−6 mol/L), phenylephrine (PE, 10^−8-3×10^−5), endothelin-1 (ET-1, 10^−10-10^−7), prostaglandin F2α (PGF2α, 10^−7-10^−4), and angiotensin II (Ang II, 10^−10-10^−7). Following sub-maximal contraction with PGF2α (40-50% of max; 3×10^−6-6×10^−6), relaxation responses to acetylcholine (10^−8-3×10^−5) and sodium nitroprusside (10^−9-10^−5) were determined.
(§1) Statistics: Data were analyzed by ANOVA with repeated measures as appropriate. Post-hoc analyses were performed using Bonferroni multiple-comparisons procedures. EC50 and maximum response calculations were performed by fitting individual dose-response data sets to a four-parameter logistic function (Hillslope method); y=min+([…])/(1+(x/EC50)^Hillslope). All mRNA fold changes were calculated using the Livak method (54). All analytical comparisons were performed using SigmaStat/SigmaPlot (Systat). All data are presented as mean±sem.

Data set [1] deals with 2°-branch mesenteric artery. Kind of data set: Mesenteric artery vascular reactivity (pressurized myography). The following applies: for Emax: Mus musculus, read-out: Maximum Response. Type of data set: cell-based, mice. The protocol:
Mesenteric Artery Vascular Reactivity: Secondary branches of mesenteric artery were dissected and placed in chilled oxygenated (21% O2, 5% CO2, and 74% N2) Kreb's buffer. A segment (˜1 mm long) of artery was transferred to a vessel chamber (DMT), cannulated with glass micropipettes and secured with silk ligatures. The artery was slowly pressurized to 40 mmHg without flow. After 30 min equilibration, vessel viability was tested by constriction response to 100 mM KCl. Vascular responses to PE (10-9-10-5 mol/L), AVP (10-12-10-7 mol/L), and ET-1 (10-11-10-8 mol/L) were then assessed. The artery was then superfused with calcium-free Krebs buffer containing 10-5 mol/L sodium nitroprusside and 2 mmol/L EGTA to maximally dilate the vessel. Internal and external diameters were measured at 75 mm Hg. Wall thickness, media/lumen ratio and cross sectional area (CSA) were calculated as previously described by Neves, et al. (62).
as §1

Data set [2] deals with sRA mice and littermate controls. Kind of data set: Plasma vasopressin (ELISA) after BH4 treatment. Type of data set: in vivo. The conditions noted are these: BH4 10 mg/kg/day i.p., three days. The protocol:
Methods: Double-transgenic sRA mice and littermate controls were placed into single-mouse metabolic cages (Nalgene), and maintained on a 12:12 light:dark cycle at 22° C. with ad libitum access to standard chow (Teklad 7013) and water. Mice were injected once daily (i.p.) with BH4 to achieve 10 mg/kg/day. On the fourth day, mice were sacrificed by CO2 asphyxiation and trunk blood was collected into lithium heparin-coated tubes and placed on ice between 11:30 AM and 1:00 PM (5.5 to 7 hours into the light phase of the standard light cycle). Blood was then centrifuged at 2,000×g for 20 minutes. Plasma was collected and stored at −80° C. until analysis. Plasma samples were analyzed for vasopressin using a commercially-available ELISA kit (Cayman, catalog #583951), according to the manufacturer's instructions. Results falling outside the range of the standard curve (>3,000 pg/mL or <23.4 pg/mL) were set to the maximum or minimum (3,000 or 23.4 pg/mL), respectively, for statistical comparisons. Data were analyzed by three-way ANOVA followed by Tukey all-pairwise multiple comparison procedures.
For orientation: In an ELISA, binding on a coated surface is turned into a signal by an enzyme label.

The subject of another data set is rats. The following applies: euhydrated vs dehydrated; cited from earlier work.
Data set [3] has as its system isolated neurointermediate lobes. The following applies: baseline and potassium-stimulated conditions; cited from earlier work.
The subject of data set [4] is sRA mice. In words: Radiotelemetric blood pressure, heart rate and physical activity during antagonist infusion. The class given is in vivo. The protocol:
Blood pressure (telemetry). Radiotelemetric blood pressures were recorded from the carotid artery essentially as previously reported (29). Briefly, a telemeter probe (DSI, model TA11PA-C10) was inserted into the common carotid artery under ketamine-xylazine anesthesia. After >2 days of recovery, blood pressure, heart rate, and spontaneous physical activity were recorded for 30 s every 5 min using the Dataquest program (DSI). After baseline recordings, mice were chronically delivered conivaptan and tolvaptan via osmotic minipump that was implanted through an interscapular incision into the subcutaneous space of the back under isoflurane anesthesia.

Data set [5] concerns sRA mice. In words: Tail-cuff systolic blood pressure during chronic subcutaneous antagonist infusion. Type of data set: in vivo. The following applies: 22 ng/h sc, 10 days chronic infusion.
For a further data set, the system named is DOCA-salt hypertension. The following applies: rats, intracerebroventricular (ICV) infusion; cited from earlier work.
Data set [6] relates to sRA and control littermate mice. Kind of data set: Blood chemistry following tolvaptan infusion (iSTAT CHEM8+). Type of data set: in vivo. The conditions noted are these: for Crenfinine: lower detection limit 0.20 mg/dl. The protocol:
Blood pressure (tail-cuff). Here we first examined blood pressure in sRA mice using a Visitech Systems BP-2000 tail-cuff blood pressure monitoring system, as previously described (84). Briefly, animals were acclimated to warmed restraint boxes daily for 1 wk. Once acclimated, 30 measurements of systolic blood pressure were averaged from each animal daily for 2 wk to assess baseline blood pressure. Conivaptan (Vaprisol, YM 087, 22 ng/h sc, Baxter Healthcare) or tolvaptan (OPC-41061, 22 ng/h sc, Sigma Aldrich) was delivered to distinct subsets of mice by osmotic minipump (model 1004, Alzet). After osmotic minipump implantation, pressures were recorded daily for 10 days to assess drug effects.
Blood and urine analyses: Plasma was obtained by collecting whole blood by submandibular bleed into lithium heparin coated tubes, then centrifuged at 5,000×g for 5 minutes, and the supernatant transferred to a fresh tube and frozen at −80° C. until analysis. Urine was collected using Nalgene single-mouse metabolism cages as previously described (29). Copeptin was measured using an ELISA kit (USCN Life Sciences), according to the manufacturer's instructions. Blood chemistries and urine creatinine were determined using a handheld iSTAT clinical chemistry analyzer (Abbott), with CHEM8+ cartridges. Urine protein was determined using a bicinchoninic acid assay kit (Thermo Fisher/Pierce), according to the manufacturer's instructions.

Data set [7] deals with polycystic kidney disease. The conditions noted are these: average dose 95 mg per day over 3 years, cited from earlier work.
Data set [8] deals with patients with heart failure. The conditions noted are these: with traditional diuretics; cited from earlier work.
The mark [9] stands for this setting: exemplar female sRA mouse, conivaptan 22 ng/h sc, 18 days.
[10] abbreviates: males, Control mice, tolvaptan 22 ng/h, 10 days sc.

Consider `CC(=O)OCC[N+](C)(C)C` [Acetylcholine], for which the Emax was found to be 78.9 ± 3.3% in the data set with abdominal aorta (male Control mice) and 70.4 ± 8.9% in the data set with abdominal aorta (male sRA mice).

For the compound `CC[C@H](C)[C@H](NC(=O)[C@H](CC(=O)O)NC(=O)[C@H](CC(C)C)NC(=O)[C@H](Cc1c[nH]cn1)NC(=O)[C@@H]1CSSC[C@H](N)C(=O)N[C@@H](CO)C(=O)N[C@H]2CSSC[C@H](NC(=O)[C@H](CCC(=O)O)NC(=O)[C@H](CCCCN)NC(=O)[C@H](CC(=O)O)NC(=O)[C@H](CCSC)NC(=O)[C@H](CC(C)C)NC(=O)[C@H](CO)NC(=O)[C@H](CO)NC2=O)C(=O)N[C@@H](C(C)C)C(=O)N[C@@H](Cc2ccc(O)cc2)C(=O)N[C@@H](Cc2ccccc2)C(=O)N1)C(=O)N[C@H](C(=O)N[C@@H](Cc1c[nH]c2ccccc12)C(=O)O)[C@@H](C)CC` [Endothelin-1], the “Maximum Response” value amounted to 0.45 ± 0.04 g with abdominal aorta (male Control mice), 0.55 ± 0.09 g in the data set with abdominal aorta (male sRA mice), 67.8 ± 4.3% in data set [1] (male Control mice) and 58.0 ± 4.6% in [1] (male sRA mice).

Regarding `C[C@H](O)[C@H](O)[C@H]1CNc2[nH]c(N)nc(=O)c2N1` [BH4, (6R)-2-Amino-6-[(1R,2S)-1,2-dihydroxypropyl]-5,6,7,8-tetrahydropteridin-4(1H)-one], the “steady-state plasma AVP levels” value in data set [2] (control littermate mice) was “no effect on steady-state AVP levels; also recorded: unchanged”; in data set [2] (sRA mice) it was “significant (P=0.017) reduction; also recorded: significantly (*P=0.017) reduced”. Also, the neurohypophysial vasopressin result in the data set with rats was “reduces neurohypophysial vasopressin under euhydrated but not dehydrated conditions”. The vasopressin content entry in [3] was “reduces vasopressin content”.

For the compound `Cc1nc2c([nH]1)-c1ccccc1N(C(=O)c1ccc(NC(=O)c3ccccc3-c3ccccc3)cc1)CC2` [Conivaptan, N-(4-((4,5-dihydro-2-methylimidazo[4,5-d][1]benzazepin-6(1H)-yl)carbonyl)phenyl)-(1,1′-biphenyl)-2-carboxamide], in the data set with sRA mice [4] (setting [9]), the “blood pressure (telemetry, MAP)” value is on record as “gradual but substantial reduction in blood pressure”; the “heart rate (telemetry)” value was “slight reduction in heart rate”; the spontaneous physical activity entry is listed as “remained normal”. In the data set with sRA mice [5], the “systolic blood pressure (tail-cuff)” value is reported as “complete normalization of the hypertension”.

`C[C@H](CS)C(=O)N1CCC[C@H]1C(=O)O` [captopril]: the DOCA-salt hypertension entry with DOCA-salt hypertension was “both prevented and reversed DOCA-salt hypertension”.

Regarding `Cc1ccccc1C(=O)Nc1ccc(C(=O)N2CCC[C@@H](O)c3cc(Cl)ccc32)c(C)c1` [Tolvaptan, N-(4-[[(5R)-7-chloro-5-hydroxy-2,3,4,5-tetrahydro-1H-1-benzazepin-1-yl]carbonyl]-3-methylphenyl)-2-methylbenzamide], the “blood pressure (radiotelemetry, MAP)” value in the data set with sRA mice [4] (cohort of sRA mice (n=4 female), tolvaptan sc infusion 10 days) is given as “blood pressure reduction was confirmed”. Moreover, the “hyponatremia and hypocalcemia of sRA mice” value in data set [6] (chronic tolvaptan delivery, genotype X drug interaction P<0.05 for both) was “corrected both of these imbalances”. Further, the Crenfinine is 0.24 ± 0.02 mg/dL in data set [6] (females, Control mice, tolvaptan 22 ng/h, 10 days sc); 0.33 ± 0.04 mg/dL in data set [6] (females, sRA mice, tolvaptan 22 ng/h, 10 days sc); 0.25 ± 0.03 mg/dL in data set [6] (setting [10]); 0.30 ± 0.04 mg/dL in data set [6] (males, sRA mice, tolvaptan 22 ng/h, 10 days sc). In [6] (setting [10]), the Sodium came to 148 mM. In data set [7], the “reduction of the decline in kidney function compared with placebo” value is recorded as “approximately 30%”. The “slowing of the usual increase in kidney volume compared to placebo” value in data set [7] is on record as 50%. In addition, the “increase in kidney volume” value in data set [7] (placebo 5.51, p<0.001) is reported as 2.80 % per year. The reciprocal serum creatinine in data set [7] (placebo −3.81, p<0.001) is given as −2.61 (mg/mL)-1 per year. For the same compound, the “excretion of excess fluids and blood sodium levels” value in data set [8] is “increase excretion of excess fluids and improve blood sodium levels”. The side effects result in [8] was “without producing side effects such as hypotension (low blood pressure) or hypokalemia”. For the same compound, in the data set with sRA mice [5], the “systolic blood pressure (tail-cuff)” value is “nearly identical normalization of blood pressure”.

With `CCCCC[C@H](O)/C=C/[C@@H]1[C@@H](C/C=C\CCCC(=O)O)[C@@H](O)C[C@H]1O` [Prostaglandin F2α], the results for the “Maximum Response” value with abdominal aorta (male Control mice) and with abdominal aorta (male sRA mice) were 1.59 ± 0.06 g and 1.50 ± 0.10 g, respectively.

With `CC[C@H](C)[C@H](NC(=O)[C@H](Cc1ccc(O)cc1)NC(=O)[C@@H](NC(=O)[C@H](CCCNC(=N)N)NC(=O)[C@@H](N)CC(=O)O)C(C)C)C(=O)N[C@@H](Cc1c[nH]cn1)C(=O)N1CCC[C@H]1C(=O)N[C@@H](Cc1ccccc1)C(=O)O` [Angiotensin II], the “Maximum Response” value in the data set on abdominal aorta (male Control mice) stood at 0.32 ± 0.03 g; with abdominal aorta (male sRA mice), 0.38 ± 0.03 g.

For `CNC[C@H](O)c1cccc(O)c1` [Phenylephrine], the figures for the Emax in data set [1] (male Control mice) and in data set [1] (male sRA mice) were 67.3 ± 3% and 64.5 ± 4.1%, respectively.
